Data published in patent US11702442B2, “Cyclic dinucleotide compounds as sting agonists” (The Regents of the University of California, priority 2019, dated 2023).
Entries after “also recorded” stand apart in the source; their conditions may differ.

Legend:
[1] = test system: STING pathway; experiment: IFN-β mRNA production in RAW 264.7 cells by RT-qPCR; type: cell-based, murine; details: for IFN-β mRNA production / IFN response: RAW 264.7, 1, 5, 10 μM CDN, 2, 4, 6 h; for time post transfection of highest IFN-β mRNA production: RAW 264.7, 1, 5 and 10 μM CDN, 2, 4 and 6 h tested; for order of IFN-β induction: RAW 264.7, RT-qPCR, FIG. 3
Description: FIGS. 3A-3C provide IFN data. […] RAW 264.7 cells were transfected with 1, 5, 10 μM of c-di-GMP, c-di-^tzGMP, c-G^thGMP, c-di-G^thGMP and c-G^tzGMP, and incubated for 2, 4, 6 h before being lysed by TRIzol. RNA purification and RT-qPCR were conducted following the protocol described in the Experimental Section. FIG. 3B show IFN response after 2, 4, 6 h of incubation with 5 μM of CDNs. […] Two independent assays were performed in triplicates (n=2). Error bars indicate SD. See Yi et al, Tuning the Innante Immune Response to Cyclic Dinucleotides by Using Atomic Mutagenesis, ChemBioChem, Volume 21 (2020).
As most synthetic c-di-GMP analogues activated IRF3, the inventors analyzed their dose and time dependency for inducing IFN-β mRNA production by using RT-qPCR. RAW 264.7 cells were transfected with 1, 5 and 10 μM of CDNs as described above and incubated for 2, 4 and 6 h. Total RNA was isolated and used for RT-qPCR. As shown in FIGS. 3A-3B, c-di-GMP induced the most IFN-β mRNA production 4 h post transfection, whereas the highest response was observed after 2 h for c-di-tzGMP, c-GthGMP, and c-GtzGMP.
RT-qPCR. RAW 264.7 cells were plated on 48-well plates (2.5×10^5 cells per well) and transfected with CDN using the same method as above after 48 h of incubation at 37° C. Cells were then incubate with regular growth medium for designated time, and total RNA was isolated with TRIzol® reagent and purified with RNeasy mini kit (Qiagen) following the manufacturer's protocol. Following elution, RNA yields were evaluated using a Nanodrop spectrophotometer (Nanodrop technologies). RNA samples were converted to cDNA with SuperScript III First-Strand Synthesis kit (Invitrogen) with random hexamers following the manufacturer's protocol. Quantitative PCR (SYBR Green) analysis was performed in duplicates on an Applied Biosystems 7300 Real-time PCR system (Invitrogen). Transcription level of IFN-β gene of each sample was normalized to housekeeping gene TBP and then to untreated samples (UT) using the delta-delta CT method.

[2] = test system: STING pathway; experiment: IRF3 phosphorylation in RAW 264.7 cells (immunoblot pIRF3 vs β-actin); type: cell-based, murine; details: 2 h after transfection; for IRF3 phosphorylation (pIRF3), concentration dependence: RAW 264.7, 1, 5 and 10 μM CDN
Description: FIGS. 2A-2B show IRF3 phosphorylation induced by c-di-GMP and its analogues. […] 1, 5 and 10 μM of each CDN was used to transfect RAW 264.7 cells. Cells were lysed with NP-40 lysis buffer 2 h post transfection, 20 μg of total protein was loaded on SDS-polyacrylamide gel. Proteins were transferred to PVDF membrane after gel electrophoresis, and immunoblotted against pIRF3 and β-actin. […] The y-axis indicates relative intensity of pIRF3 compare to β-actin.
To analyze the immunostimulatory effects of all synthetic CDNs in greater detail, RAW 264.7 cells were treated with various concentrations of c-di-GMP, c-di-tzGMP, c-di-thGMP, c-GthGMP and c-GtzGMP and the phosphorylation of IRF3 to pIRF3 was evaluated. CDNs were thus transfected into RAW 264.7 murine cells with digitonin as described in previous studies.[7b,16] Cells were then lysed with NP-40 buffer 2 h after transfection, and total protein was collected for immunoblotting against phosphorylated IRF3 (pIRF3) and β-actin. […] Two other biological replicates produced similar trends (See FIG. S2 in Yi et al, ChemBioChem, Volume 21 (2020)).
Immunoblotting. RAW 264.7 cells were plated on 24-well plates (5×10^5 cells per well) and incubate at 37° C. for 48 h. Cells were then transfected with 1-10 μM of CDN in a permeabilization buffer containing 10 μg/mL digitonin, 50 mM HEPES, pH 7, 100 mM KCl, 3 mM MgCl2, 85 mM sucrose, 1 mM ATP, 0.1 mM DTT, 0.2% BSA for 30 mins at 37° C., then incubated with regular growth medium for 2 h. Cells were lysed with NP-40 lysis buffer containing protease inhibitor cocktail (Roche), PhosSTOP (Roche) and PMSF, and total protein was collected and quantified by BCA assay. Protein extracts were resolved by SDS-PAGE with 7.5% gel and transferred to PVDF membrane. Proteins were detected with the following primary antibodies: rabbit anti-pIRF3 monoclonal antibody (Cell Signaling Technology), mouse anti-β actin monoclonal antibody (Sigma-Aldrich).

[3] = target: DncV (Vibrio cholerae serotype O1, UniProt Q9KVG7); experiment: DncV-mediated CDN synthesis kinetics monitored by HPLC; type: biochemical; set-up: made in house; host or cells: Escherichia coli BL21(DE3); details: for k2/k3: product formation vs intermediate degradation; for k2 / k3 / k1: 500 μM NTP, DncV, 37° C., mean±SD; for k2: cyclization of intermediate to product; for k3: degradation of intermediate; for k1: first phosphodiester bond formation; for k1 derived from HPLC analysis: as quoted for comparison with kapp
Chain of DncV (Q9KVG7 whole entry): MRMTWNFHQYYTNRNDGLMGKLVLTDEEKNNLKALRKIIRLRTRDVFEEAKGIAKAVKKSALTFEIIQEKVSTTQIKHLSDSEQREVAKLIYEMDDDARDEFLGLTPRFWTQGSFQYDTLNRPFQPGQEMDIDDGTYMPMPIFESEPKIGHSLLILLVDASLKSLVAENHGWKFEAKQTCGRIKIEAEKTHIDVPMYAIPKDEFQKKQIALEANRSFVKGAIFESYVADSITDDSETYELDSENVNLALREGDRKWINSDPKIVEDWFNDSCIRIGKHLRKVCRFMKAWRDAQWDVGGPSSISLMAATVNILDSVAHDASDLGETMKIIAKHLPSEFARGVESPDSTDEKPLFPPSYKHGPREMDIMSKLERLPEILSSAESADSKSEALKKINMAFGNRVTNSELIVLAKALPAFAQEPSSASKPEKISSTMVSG
Description: DncV generates CDNs through a series of sequential reactions, which are thought to involve a release-and-rebound process of the intermediate. [7b,17] After the first 3′,5′-phosphodiester bond formation, the linear dinucleotide pppNpN is released and oppositely rebound to the enzyme, after which the second 3′,5′-phosphodiester linkage is made. [7b,16b,18] To ultimately apply and interpret real-time fluorescence measurements, a better understanding of the enzymatic conversion of GTP and its analogues into the corresponding CDNs is therefore required. The reaction time course was consequently analyzed, paying particular attention to the accumulation and consumption of intermediates. DncV was incubated with GTP, tzGTP and thGTP, and the reactions containing each of the corresponding substrates were quenched with calf intestinal alkaline phosphatase (CIAP) at designated time points. The relative concentrations of the starting material (S), uncyclized intermediate (I) and product (P) were then monitored by HPLC. […] Taking into account the unique release-and-rebound process of the uncyclized dinucleotide intermediate, [16b,20] the kinetics of the DncV-mediated CDN syntheses was therefore analyzed according to the model in Scheme 1a and the differential Equations (1)-(4), in which S represents the starting NTP, I1 and I2 respectively represent intermediates pppNpN and degraded intermediate pNpN (I=I1+I2), and P represents the product CDN. Papp (apparent product) stands for the sum of all the dinucleotide species, including linear ones and cyclized products.
Differential Equations (1)-(4) d[S]/dt=−2k1[S]^2 (1) d[I1]/dt=k1[S]^2−[…] (2) d[P]/dt=k2[I3] (3) d[I2]/dt=k3[I1] (4)
[…] of the mixture was subjected to HPLC analysis after filtration. The reaction mixture was separated by Sepax Bio C-18 column (250×10 mm, 5 pmparticle size) with a gradient of 0.5%-25% of 10 mM TEAA, pH7 in Me0H in 20 min at 25° C. on an Agilent 1200 series HPLC system (Agilent Technologies).
Data Analysis and curve fitting. […] The relative concentrations were plotted against time.

Structure (SMILES)	IFN-β mRNA production relative to c-di-GMP ([1]; RAW 264.7, 5 μM CDN, 2 h incubation)	IFN-β mRNA production / IFN response [1]	time post transfection of highest IFN-β mRNA production [1] [h]	order of IFN-β induction [1]	IRF3 phosphorylation (pIRF3), concentration dependence [2]	k2/k3 [3]	IRF3 phosphorylation (pIRF3) ([2]; RAW 264.7, 1 μM CDN)	IRF3 phosphorylation (pIRF3) ([2]; RAW 264.7, 5 and 10 μM CDN)	k2 [3]	k2 ([3]; listed as c-di-thGMP)	k3 [3]	k3 ([3]; listed as c-di-thGMP)	k1 [3]	k1 ([3]; listed as c-di-thGMP)	k1 derived from HPLC analysis [3] [M⁻¹ s⁻¹]	k2 ([3]; listed as c-di-tzGMP)	k3 ([3]; listed as c-di-tzGMP)	k1 ([3]; listed as c-di-tzGMP)
Nc1nc2c([C@@H]3O[C@@H]4COP(=O)(O)O[C@H]5[C@@H](O)[C@H](n6cnc7c(=O)[nH]c(N)nc76)O[C@@H]5COP(=O)(O)O[C@H]4[C@H]3O)scc2c(=O)[nH]1 [c-G^thGMP]	tenfold higher	highest potency; also recorded: earlier and stronger maximum IFN-β response compared to the native c-di-GMP; also recorded: strongest effect on IFN-β induction of all analogues tested; also recorded: faster and greater innate immune response relative to the native signal c-di-GMP	2	c-GthGMP>c-di-tzGMP>c-GtzGMP>c-di-GMP>c-di-thGMP	no clear dose-response	–	–	–	–	–	–	–	–	–	–	–	–	–
Nc1nc2c(ncn2[C@@H]2O[C@@H]3COP(=O)(O)O[C@H]4[C@@H](O)[C@H](n5cnc6c(=O)[nH]c(N)nc65)O[C@@H]4COP(=O)(O)O[C@H]3[C@H]2O)c(=O)[nH]1 [c-di-GMP, reference compound]	–	–	4	c-GthGMP>c-di-tzGMP>c-GtzGMP>c-di-GMP>c-di-thGMP	–	116	did not induce obvious IRF3 activation	comparable efficiency in inducing IRF3 phosphorylation	–	–	–	–	–	–	–	–	–	–
Nc1nc2c([C@@H]3O[C@@H]4COP(=O)(O)O[C@H]5[C@@H](O)[C@H](c6scc7c(=O)[nH]c(N)nc67)O[C@@H]5COP(=O)(O)O[C@H]4[C@H]3O)scc2c(=O)[nH]1 [c-di-^thGMP]	–	minimal; also recorded: essentially inactive	–	c-GthGMP>c-di-tzGMP>c-GtzGMP>c-di-GMP>c-di-thGMP	did not trigger observable IRF3 activation at any of the concentrations tested	8.0	–	–	(2.32 ± 0.05) × 10^−4 s^−1	(2.32±0.05)×10^−3 s^−1	(2.91 ± 0.01) × 10^−5 s^−1	(2.91±0.01)×10^−5 s^−1	(3.08 ± 0.03) × 10^−7 μM^−1s^−1	(3.08±0.03)×10^−7 μM^−1s^−1	0.31 ± 0.03	–	–	–
Nc1nc2c([C@@H]3O[C@@H]4COP(=O)(O)O[C@H]5[C@@H](O)[C@H](c6snc7c(=O)[nH]c(N)nc67)O[C@@H]5COP(=O)(O)O[C@H]4[C@H]3O)snc2c(=O)[nH]1 [c-di-^tzGMP]	–	earlier and stronger maximum IFN-β response compared to the native c-di-GMP	2	c-GthGMP>c-di-tzGMP>c-GtzGMP>c-di-GMP>c-di-thGMP	Increasing amounts of phosphorylated IRF3	26	–	–	(3.4 ± 0.2) × 10^−3 s^−1	–	(1.3 ± 0.1) × 10^−4 s^−1	–	(1.26 ± 0.07) × 10^−6 μM^−1s^−1	–	1.26 ± 0.07	(3.4±0.2)×10^−3 s^−1	(1.3±0.1)×10^−4 s^−1	(1.26±0.07)×10^−6 μM^−1s^−1
